Our source for the IC50 values is article PMC8724943 (Translational Oncology, 2021).

As a reminder, the IC50 is the midpoint of a concentration-inhibition curve.

In the assay the target is p21 activated kinase 4 (PAK4) (Homo sapiens, UniProt O96013). Description: in vitro radiometric kinase assay. It is filed as biochemical.
Sequence of p21 activated kinase 4 (PAK4) (O96013 whole entry): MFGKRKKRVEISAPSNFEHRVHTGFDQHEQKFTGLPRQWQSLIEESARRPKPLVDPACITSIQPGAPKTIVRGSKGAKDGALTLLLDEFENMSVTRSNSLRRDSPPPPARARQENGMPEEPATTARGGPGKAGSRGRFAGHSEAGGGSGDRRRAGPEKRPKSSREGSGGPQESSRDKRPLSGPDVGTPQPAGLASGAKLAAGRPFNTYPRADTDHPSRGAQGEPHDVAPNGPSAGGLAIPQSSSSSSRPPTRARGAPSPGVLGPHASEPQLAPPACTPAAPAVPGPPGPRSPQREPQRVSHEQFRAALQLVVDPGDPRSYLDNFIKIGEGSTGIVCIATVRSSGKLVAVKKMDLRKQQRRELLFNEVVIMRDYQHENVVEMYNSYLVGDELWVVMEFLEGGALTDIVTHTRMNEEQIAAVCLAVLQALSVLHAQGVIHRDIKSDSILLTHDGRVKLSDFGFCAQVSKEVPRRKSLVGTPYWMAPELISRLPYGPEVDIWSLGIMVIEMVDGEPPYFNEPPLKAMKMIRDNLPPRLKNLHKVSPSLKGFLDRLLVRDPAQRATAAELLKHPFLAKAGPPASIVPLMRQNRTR

In the case of PAKib, the IC50 was around 500 nM.
